# Data from patent EP4737445A1, “NOVEL SATURATED HETEROCYCLE-SUBSTITUTED HETEROARYL-CARBONOHYDRAZONOYL DICYANIDE COMPOUND AND USE THEREOF” (Korea Institute of Science and Technology, priority 2023, dated 2025).
# What was measured:
# Format in all cases: in vitro ADME
# CYP2D6 = biological target: T1, CYP2D6 (Homo sapiens, UniProt P10635); test: CYP isoenzyme activity inhibition in human liver microsomes, CYP2D6; conditions: 10 µM compound; human liver microsomes 0.25 mg/mL; relative to control without compound
# T1 construct: human liver microsomes (0.25 mg/mL); from tissue; host or cells: human liver microsomes
# T1 sequence (P10635 whole entry): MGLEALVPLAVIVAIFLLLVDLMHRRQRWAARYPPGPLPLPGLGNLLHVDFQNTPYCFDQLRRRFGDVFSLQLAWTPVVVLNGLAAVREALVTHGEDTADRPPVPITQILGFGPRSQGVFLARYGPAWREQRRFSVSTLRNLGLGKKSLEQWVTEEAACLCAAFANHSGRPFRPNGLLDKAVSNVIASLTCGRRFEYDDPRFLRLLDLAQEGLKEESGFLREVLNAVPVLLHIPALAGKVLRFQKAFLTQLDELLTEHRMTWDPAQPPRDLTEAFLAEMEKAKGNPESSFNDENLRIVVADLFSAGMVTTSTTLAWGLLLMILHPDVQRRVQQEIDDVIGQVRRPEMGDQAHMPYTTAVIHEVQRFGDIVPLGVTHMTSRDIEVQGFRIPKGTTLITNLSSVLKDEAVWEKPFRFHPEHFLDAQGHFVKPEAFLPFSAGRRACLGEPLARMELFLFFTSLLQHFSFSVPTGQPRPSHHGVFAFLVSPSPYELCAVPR
# Method: (§1) The CYP isoenzyme activity inhibitory effect by the compounds prepared according to Examples 1 to 46 was confirmed. Specifically, human liver microsomes (0.25 mg/mL), 0.1 M phosphate buffer solution (pH 7.4), a substrate drug cocktail of five drug metabolizing enzymes (Phenacetin 50 µM, Diclofenac 10 µM, S-mephenytoin 100 µM, Dextromethorphan 5 µM, and Midazolam 2.5 µM), and the compounds were added at concentrations of 0 or 10 µM, respectively, and pre-incubated at 37°C for 5 minutes, and then NADPH generation system solution was added and incubated at 37°C for an additional 15 minutes. Thereafter, an acetonitrile solution containing an internal standard (Terfenadine) was added to terminate the reaction, and after centrifugation for 5 minutes (14,000 rpm, 4°C), the supernatant was injected into an LC-MS/MS system to simultaneously analyze the metabolites of the substrate drugs, thereby evaluating the drug metabolizing enzyme inhibitory activity.
# (§2) The metabolites of each CYP isoenzyme marker drug generated through the reaction were analyzed using a Shimadzu Nexera XR system and TSQ vantage (Thermo). A Kinetex C18 (2.1 × 100 mm, 2.6 µm, particle size; Phenomenex, USA) was used as the HPLC column, and (A) distilled water containing 0.1% formic acid and (B) acetonitrile containing 0.1% formic acid were used as mobile phases, and a gradient program as shown in Table 6 below was applied.
# (§3) The generated metabolites were quantified using MRM (Multiple Reaction Monitoring) quantitative mode, and Xcalibur (version 1.6.1) was used for data analysis. To show the CYP isoenzyme activity inhibitory effect of the novel compounds prepared according to the Examples of the disclosure, the % activity of CYP isoenzymes relative to the control group without compound addition is shown in Table 6 below. Additionally, to confirm the difference in effect according to substituents, Comparative Compounds 1 and 5, which are two compounds that share a similar parent nucleus structure with Compounds 1 to 46 of the disclosure while Cy is substituted with aromatic heteroaryl instead of saturated heterocyclyl, were selected as comparative compounds and their activities are shown together.
# CYP2C9 = biological target: T2, CYP2C9 (Homo sapiens, UniProt P11712); test: CYP isoenzyme activity inhibition in human liver microsomes, CYP2C9; conditions: 10 µM compound; human liver microsomes 0.25 mg/mL; relative to control without compound
# T2 construct: human liver microsomes (0.25 mg/mL); from tissue; host or cells: human liver microsomes
# T2 sequence (P11712 whole entry): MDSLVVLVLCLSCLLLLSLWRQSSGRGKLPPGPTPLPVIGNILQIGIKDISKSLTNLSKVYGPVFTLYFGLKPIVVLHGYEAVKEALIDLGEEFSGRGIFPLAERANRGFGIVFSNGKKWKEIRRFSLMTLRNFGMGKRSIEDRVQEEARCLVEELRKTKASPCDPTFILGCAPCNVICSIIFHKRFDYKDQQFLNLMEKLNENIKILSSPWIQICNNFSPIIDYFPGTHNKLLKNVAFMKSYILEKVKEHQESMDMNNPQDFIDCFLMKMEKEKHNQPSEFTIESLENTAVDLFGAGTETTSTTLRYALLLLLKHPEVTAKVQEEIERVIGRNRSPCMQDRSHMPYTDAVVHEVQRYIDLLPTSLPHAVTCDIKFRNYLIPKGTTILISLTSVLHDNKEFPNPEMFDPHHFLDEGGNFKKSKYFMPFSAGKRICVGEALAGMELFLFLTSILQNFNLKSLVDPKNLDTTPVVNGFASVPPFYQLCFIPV
# Method: as §1, §2, §3
# CYP2C19 = biological target: T3, CYP2C19 (Homo sapiens, UniProt P33261); test: CYP isoenzyme activity inhibition in human liver microsomes, CYP2C19; conditions: 10 µM compound; human liver microsomes 0.25 mg/mL; relative to control without compound
# T3 construct: human liver microsomes (0.25 mg/mL); from tissue; host or cells: human liver microsomes
# T3 sequence (P33261 whole entry): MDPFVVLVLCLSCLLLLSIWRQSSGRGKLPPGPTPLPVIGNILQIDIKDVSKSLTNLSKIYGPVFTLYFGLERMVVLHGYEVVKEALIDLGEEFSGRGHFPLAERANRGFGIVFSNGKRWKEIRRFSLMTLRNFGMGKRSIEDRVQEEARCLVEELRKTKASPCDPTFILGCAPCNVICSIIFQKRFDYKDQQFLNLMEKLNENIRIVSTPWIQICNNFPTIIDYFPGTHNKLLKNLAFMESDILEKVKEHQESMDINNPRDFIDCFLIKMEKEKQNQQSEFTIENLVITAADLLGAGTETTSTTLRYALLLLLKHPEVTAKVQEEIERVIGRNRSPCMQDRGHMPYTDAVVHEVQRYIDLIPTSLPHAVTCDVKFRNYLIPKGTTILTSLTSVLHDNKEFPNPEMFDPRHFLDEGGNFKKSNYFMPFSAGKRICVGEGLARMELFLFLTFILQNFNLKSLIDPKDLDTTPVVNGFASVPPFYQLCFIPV
# Method: as §1, §2, §3
# CYP1A2 = biological target: T4, CYP1A2 (Homo sapiens, UniProt P05177); test: CYP isoenzyme activity inhibition in human liver microsomes, CYP1A2; conditions: 10 µM compound; human liver microsomes 0.25 mg/mL; relative to control without compound
# T4 construct: human liver microsomes (0.25 mg/mL); from tissue; host or cells: human liver microsomes
# T4 sequence (P05177 1-516): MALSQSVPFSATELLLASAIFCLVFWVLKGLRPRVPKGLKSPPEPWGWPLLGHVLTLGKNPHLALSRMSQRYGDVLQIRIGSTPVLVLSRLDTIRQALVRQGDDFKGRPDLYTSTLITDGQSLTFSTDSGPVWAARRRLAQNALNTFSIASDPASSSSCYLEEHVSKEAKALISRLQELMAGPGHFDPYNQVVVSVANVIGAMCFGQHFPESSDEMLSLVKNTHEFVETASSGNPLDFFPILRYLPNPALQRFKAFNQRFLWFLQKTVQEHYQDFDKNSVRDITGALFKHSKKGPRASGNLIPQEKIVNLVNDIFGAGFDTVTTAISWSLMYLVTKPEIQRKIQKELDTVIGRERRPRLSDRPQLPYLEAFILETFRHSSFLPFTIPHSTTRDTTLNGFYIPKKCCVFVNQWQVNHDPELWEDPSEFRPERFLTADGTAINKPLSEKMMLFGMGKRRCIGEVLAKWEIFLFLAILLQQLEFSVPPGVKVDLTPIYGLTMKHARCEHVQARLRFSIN
# Method: as §1, §2, §3
# [1] = Liver microsomal stability, rat; conditions: 1 µM compound; 0.5 mg/mL microsomes; NADPH; 30 minutes at 37°C
# Method: Liver microsomal stability by the compounds prepared according to Examples 1 to 46 was confirmed. Specifically, four types of liver microsomes (human, dog, rat, and mouse each at 0.5 mg/mL), 0.1 M phosphate buffer solution (pH 7.4), and the compounds at 1 µM concentration were added and pre-incubated at 37°C for 5 minutes, and then NADPH generation system solution was added and incubated at 37°C for an additional 30 minutes. Thereafter, an acetonitrile solution containing an internal standard (chloropropamide) was added to terminate the reaction, and after centrifugation for 5 minutes (14,000 rpm, 4°C), the supernatant was injected into an LC-MS/MS system to analyze the substrate drug, thereby evaluating the metabolic stability of 8 compounds.
# The amount of remaining substrate through the reaction was analyzed using a Shimadzu Nexera XR system and TSQ vantage (Thermo). A Kinetex XB-C18 (2.1 × 100 mm, 2.6 µm, particle size; Phenomenex, USA) was used as the HPLC column, and (A) distilled water containing 0.1% formic acid and (B) acetonitrile containing 0.1% formic acid were used as mobile phases. Analyst software (version 1.6.3) and Xcalibur (version 1.6.1) were used for data analysis. The calculated results are shown in Table 5 below: Liver microsomal stability data of novel compounds from […] (human, rat, and mouse).
SMILES,CYP2D6 (% activity) (CYP2D6),CYP2C9 (% activity) (CYP2C9),CYP2C19 (% activity) (CYP2C19),CYP1A2 (% activity) (CYP1A2),Rat microsomes (% remaining) [1]
"CC1CN(c2nc3ccc(NN=C(C#N)C#N)cc3s2)CCO1 (stereo not shown) [Compound 12, (2-(2-methylmorpholino)benzo[d]thiazol-6-yl)carbonohydrazonoyl dicyanide]",94.8 % activity,65.1 % activity,84.8 % activity,74.9 % activity,70.1 % remaining
"CC1COCCN1c1nc2ccc(NN=C(C#N)C#N)cc2s1 (stereo not shown) [Compound 13, (2-(3-methylmorpholino)benzo[d]thiazol-6-yl)carbonohydrazonoyl dicyanide]",> 100 % activity,75 % activity,83.3 % activity,83 % activity,47.7 % remaining
"CC1CN(c2nc3ccc(NN=C(C#N)C#N)cc3o2)CCO1 (stereo not shown) [Compound 15, (2-(2-methylmorpholino)benzo[d]oxazol-6-yl)carbonohydrazonoyl dicyanide]",> 100 % activity,88.6 % activity,87.9 % activity,80.2 % activity,60 % remaining
"CC1COCCN1c1nc2ccc(NN=C(C#N)C#N)cc2o1 (stereo not shown) [Compound 16, (2-(3-methylmorpholino)benzo[d]oxazol-6-yl)carbonohydrazonoyl dicyanide]",92.1 % activity,87 % activity,> 100 % activity,99.9 % activity,49.6 % remaining
"COC1CCN(c2nc3ccc(NN=C(C#N)C#N)cc3o2)CC1 [Compound 17, (2-(4-methoxypiperidin-1-yl)benzo[d]oxazol-6-yl)carbonohydrazonoyl dicyanide]",89.5 % activity,73.8 % activity,90 % activity,83.2 % activity,59.3 % remaining
"CC1CN(c2nc3ccc(NN=C(C#N)C#N)cc3o2)CC(C)O1 (stereo not shown) [Compound 18, (2-(2,6-dimethylmorpholino)benzo[d]oxazol-6-yl)carbonohydrazonoyl dicyanide]",97 % activity,> 100 % activity,100 % activity,98.9 % activity,72.9 % remaining
"N#CC(C#N)=NNc1ccc2nc(N3C4CCC3COC4)oc2c1 [Compound 20, (2-(3-oxa-8-azabicyclo[3.2.1]octan-8-yl)benzo[d]oxazol-6-yl)carbonohydrazonoyl dicyanide]",57.5 % activity,48 % activity,51.8 % activity,55.6 % activity,82.9 % remaining
"N#CC(C#N)=NNc1ccc2nc(N3CC4CCC(C3)O4)sc2c1 [Compound 23, (2-(8-oxa-3-azabicyclo[3.2.1]octan-3-yl)benzo[d]thiazol-6-yl)carbonohydrazonoyl dicyanide]",71.5 % activity,68.5 % activity,69.6 % activity,70.6 % activity,69.8 % remaining
"N#CC(C#N)=NNc1ccc2nc(N3CC4CCC(C3)O4)oc2c1 [Compound 26, (2-(8-oxa-3-azabicyclo[3.2.1]octan-3-yl)benzo[d]oxazol-6-yl)carbonohydrazonoyl dicyanide]",82.1 % activity,53.3 % activity,82.1 % activity,79.1 % activity,95.1 % remaining
"CC(C)N1CCN(c2nc3ccc(NN=C(C#N)C#N)cc3o2)CC1 [Compound 28, (2-(4-isopropylpiperazin-1-yl)benzo[d]oxazol-6-yl)carbonohydrazonoyl dicyanide]",78 % activity,48.5 % activity,90.8 % activity,95.5 % activity,50.7 % remaining
"CC(=O)N1CCN(c2nc3ccc(NN=C(C#N)C#N)cc3s2)CC1 [Compound 30, (2-(4-acetylpiperazin-1-yl)benzo[d]thiazol-6-yl)carbonohydrazonoyl dicyanide]",88.9 % activity,86.2 % activity,86.2 % activity,88.9 % activity,91.9 % remaining
"CC(=O)N1CCN(c2nc3ccc(NN=C(C#N)C#N)cc3o2)CC1 [Compound 31, (2-(4-acetylpiperazin-1-yl)benzo[d]oxazol-6-yl)carbonohydrazonoyl dicyanide]",93.3 % activity,88.8 % activity,90.8 % activity,92.7 % activity,88.3 % remaining
"CCn1c(N2CCOCC2)nc2ccc(NN=C(C#N)C#N)cc21 [Compound 32, (1-ethyl-2-morpholino-1H-benzo[d]imidazol-6-yl)carbonohydrazonoyl dicyanide]",92.1 % activity,65.1 % activity,77.1 % activity,78.9 % activity,81.7 % remaining
"CCn1c(N2CCOCC2)nc2cc(NN=C(C#N)C#N)ccc21 [Compound 33, (1-ethyl-2-morpholino-1H-benzo[d]imidazol-5-yl)carbonohydrazonoyl dicyanide]",97.9 % activity,28.8 % activity,78.6 % activity,75.5 % activity,96.8 % remaining
